Calls of active or inactive are those of the source. The rule behind the calls is not given here.
What follows are molecules tested on Rattus norvegicus (assay: Anti-allodynic activity in rat model of capsaicin-induced inflammatory paw pain assessed as inhibition of mechanical allodynia at 5 uM administered intrathecally 30 mins prior to capsaicin induction and measured at 10 mins interval for 65 mins by von frey test relative to control). Conditions: central, 1.583 h, time 95 min.
Format: functional
With `O=c1[nH]cc(Nc2ccncc2)cc1-c1cccc2[nH]ccc12` the inhibition in vivo at 5 µM was 56%.
With `O=C(Nc1c[nH]c(=O)c(-c2cccc3[nH]ccc23)c1)c1ccc([N+](=O)[O-])cc1` the inhibition in vivo at 5 µM was 58%.
With `COc1ncc(Nc2ccncc2)cc1-c1cccc2[nH]ccc12` the inhibition in vivo at 5 µM was 85%.
With `O=c1[nH]cc(OC2CCNCC2)cc1-c1cccc2[nH]ccc12` the inhibition in vivo at 5 µM was 64%.

Same assay, conditions: time 95.0 min
With `Cn1ccc2c(-c3cc(Nc4ccncc4)c[nH]c3=O)cccc21` the inhibition was “inactive”.
For `CCN(CC)CCCn1ccc2c(-c3cc(Nc4ccncc4)c[nH]c3=O)cccc21`, the inhibition was “inactive”.
For `O=C(Nc1c[nH]c(=O)c(-c2cccc3[nH]ccc23)c1)C1CCNCC1`, the inhibition was “Active”.
`CCN(CC)CCCCn1ccc2c(-c3cc(Nc4ccncc4)c[nH]c3=O)cccc21` was tested, and the inhibition was “inactive”.
With `O=C(Nc1c[nH]c(=O)c(-c2cccc3[nH]ccc23)c1)c1ccncc1` the inhibition was “Active”.
For `CN(c1ccncc1)c1c[nH]c(=O)c(-c2cccc3[nH]ccc23)c1`, the inhibition was “Active”.
With `O=c1[nH]cc(Oc2ccncc2)cc1-c1cccc2[nH]ccc12` the inhibition was “Active”.
`O=c1[nH]cc(Oc2ccc([N+](=O)[O-])cc2)cc1-c1cccc2[nH]ccc12` was tested, and the inhibition was “Active”.

Source: ChEMBL document CHEMBL5576153, “Synthesis of diversely substituted pyridin-2(1H)-ones and in vivo evaluation of their anti-allodynic effect on cutaneous inflammatory mechanical allodynia” (2024)
